Test results from PubChem BioAssay AID2060501 (Molecular Pharmacology Branch, DTP, NCI, 2025).
One block for each compound: values may come before it.

System: 282377-053-R-J1-PDC complex spheroids, viability
Test: Anticancer human tumor 282377-053-R-J1-PDC patient-derived colon adenocarcinoma cell line growth inhibition [GQUAD]
Settings: for IC50: curve of first compound; for viability, T/C: stronger effect = lower value
Outline: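 Tumor cells were grown as complex spheroids with HUVEC endothelial cells and mesenchymal stem cells as stroma. G-quadruplex stabilizers were combined with targeted agents over half-log dilutions from near the clinical Cmax, or from 10 microM.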

[1] = second compound 0.0316 µM, first compound 0.0316 µM
[2] = second compound 0.0316 µM, first compound 0.1 µM
[3] = second compound 0.0316 µM, first compound 0.316 µM
[4] = second compound 0.0316 µM, first compound 1 µM
[5] = second compound 0.0316 µM, first compound 3.16 µM
[6] = second compound 0.0316 µM, first compound 10 µM
[7] = second compound 0.1 µM, first compound 0.0316 µM
[8] = second compound 0.1 µM, first compound 0.1 µM
[9] = second compound 0.1 µM, first compound 0.316 µM
[10] = second compound 0.1 µM, first compound 1 µM
[11] = second compound 0.1 µM, first compound 3.16 µM
[12] = second compound 0.1 µM, first compound 10 µM
[13] = second compound 0.316 µM, first compound 0.0316 µM
[14] = second compound 0.316 µM, first compound 0.1 µM
[15] = second compound 0.316 µM, first compound 0.316 µM
[16] = second compound 0.316 µM, first compound 1 µM
[17] = second compound 0.316 µM, first compound 3.16 µM
[18] = second compound 0.316 µM, first compound 10 µM
[19] = second compound 1 µM, first compound 0.0316 µM
[20] = second compound 1 µM, first compound 0.1 µM
[21] = second compound 1 µM, first compound 0.316 µM
[22] = second compound 1 µM, first compound 1 µM
[23] = second compound 1 µM, first compound 3.16 µM
[24] = second compound 1 µM, first compound 10 µM
[25] = second compound 3.16 µM, first compound 0.0316 µM
[26] = second compound 3.16 µM, first compound 0.1 µM
[27] = second compound 3.16 µM, first compound 0.316 µM
[28] = second compound 3.16 µM, first compound 1 µM
[29] = second compound 3.16 µM, first compound 3.16 µM
[30] = second compound 3.16 µM, first compound 10 µM
[31] = second compound 10 µM, first compound 0.0316 µM
[32] = second compound 10 µM, first compound 0.1 µM
[33] = second compound 10 µM, first compound 0.316 µM
[34] = second compound 10 µM, first compound 1 µM
[35] = second compound 10 µM, first compound 3.16 µM
[36] = second compound 10 µM, first compound 10 µM
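Also: spheroids exposed to compounds for 7 days before readout.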
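For viability, T/C in this document: percent of vehicle DMSO control viability with 100% = untreated-like growth.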

SMILES: C=CCn1c(=O)c2cnc(Nc3ccc(N4CCN(C)CC4)cc3)nc2n1-c1cccc(C(C)(C)O)n1 + Cc1cnc(CNC(=O)c2c(=O)c3ccc(N4CCCN(C)CC4)nc3n3c2sc2ccccc23)cn1
IC50 (second compound 0.0316 µM): 1590 nM
IC50 (second compound 0.1 µM): 1470 nM
IC50 (second compound 0.316 µM): 731 nM
IC50 (second compound 1 µM): 651 nM
IC50 (second compound 3.16 µM): 295 nM
IC50 (second compound 10 µM): < 31.6 nM
viability, T/C [1]: 109%
viability, T/C [2]: 102%
viability, T/C [3]: 107%
viability, T/C [4]: 67.7%
viability, T/C [5]: 24.1%
viability, T/C [6]: 15.1%
viability, T/C [7]: 115%
viability, T/C [8]: 115%
viability, T/C [9]: 99.6%
viability, T/C [10]: 62.8%
viability, T/C [11]: 24.6%
viability, T/C [12]: 11.7%
viability, T/C [13]: 102%
viability, T/C [14]: 97.8%
viability, T/C [15]: 73.4%
viability, T/C [16]: 40.4%
viability, T/C [17]: 22.3%
viability, T/C [18]: 12.5%
viability, T/C [19]: 75.5%
viability, T/C [20]: 75.8%
viability, T/C [21]: 65.1%
viability, T/C [22]: 40.2%
viability, T/C [23]: 22.6%
viability, T/C [24]: 13.6%
viability, T/C [25]: 55.7%
viability, T/C [26]: 60.1%
viability, T/C [27]: 45.4%
viability, T/C [28]: 42%
viability, T/C [29]: 26.2%
viability, T/C [30]: 12.1%
viability, T/C [31]: 44.4%
viability, T/C [32]: 48.5%
viability, T/C [33]: 43.1%
viability, T/C [34]: 36.6%
viability, T/C [35]: 1.31%
viability, T/C [36]: 0.34%

SMILES: Cc1[nH]c2ccccc2c1CCNCc1ccc(/C=C/C(=O)NO)cc1 + Cc1cnc(CNC(=O)c2c(=O)c3ccc(N4CCCN(C)CC4)nc3n3c2sc2ccccc23)cn1
IC50 (second compound 0.0316 µM): 140 nM
IC50 (second compound 0.1 µM): 122 nM
IC50 (second compound 0.316 µM): 63.7 nM
IC50 (second compound 1 µM): 17.7 nM
IC50 (second compound 3.16 µM): < 0.999 nM
IC50 (second compound 10 µM): < 0.999 nM
viability, T/C (second compound 0.0316 µM, first compound 0.000999 µM): 86.4%
viability, T/C (second compound 0.0316 µM, first compound 0.00316 µM): 87.7%
viability, T/C (second compound 0.0316 µM, first compound 0.00999 µM): 129%
viability, T/C [1]: 95.2%
viability, T/C (second compound 0.0316 µM, first compound 0.0999 µM): 67.7%
viability, T/C [3]: 7.24%
viability, T/C (second compound 0.1 µM, first compound 0.000999 µM): 107%
viability, T/C (second compound 0.1 µM, first compound 0.00316 µM): 86.6%
viability, T/C (second compound 0.1 µM, first compound 0.00999 µM): 106%
viability, T/C [7]: 84.3%
viability, T/C (second compound 0.1 µM, first compound 0.0999 µM): 60.7%
viability, T/C [9]: 1.3%
viability, T/C (second compound 0.316 µM, first compound 0.000999 µM): 88.4%
viability, T/C (second compound 0.316 µM, first compound 0.00316 µM): 75.8%
viability, T/C (second compound 0.316 µM, first compound 0.00999 µM): 86.2%
viability, T/C [13]: 67.8%
viability, T/C (second compound 0.316 µM, first compound 0.0999 µM): 37.9%
viability, T/C [15]: 2.14%
viability, T/C (second compound 1 µM, first compound 0.000999 µM): 62.9%
viability, T/C (second compound 1 µM, first compound 0.00316 µM): 53.8%
viability, T/C (second compound 1 µM, first compound 0.00999 µM): 56.3%
viability, T/C [19]: 43%
viability, T/C (second compound 1 µM, first compound 0.0999 µM): 33%
viability, T/C [21]: 0.07%
viability, T/C (second compound 3.16 µM, first compound 0.000999 µM): 51.1%
viability, T/C (second compound 3.16 µM, first compound 0.00316 µM): 48%
viability, T/C (second compound 3.16 µM, first compound 0.00999 µM): 38.5%
viability, T/C [25]: 40.5%
viability, T/C (second compound 3.16 µM, first compound 0.0999 µM): 19.6%
viability, T/C [27]: 0.2%
viability, T/C (second compound 10 µM, first compound 0.000999 µM): 33.8%
viability, T/C (second compound 10 µM, first compound 0.00316 µM): 32.9%
viability, T/C (second compound 10 µM, first compound 0.00999 µM): 47%
viability, T/C [31]: 37%
viability, T/C (second compound 10 µM, first compound 0.0999 µM): 0.26%
viability, T/C [33]: 0.36%

SMILES: O=C(NO)c1cnc(N2CCN(S(=O)(=O)c3ccc4ccccc4c3)CC2)nc1 + Cc1cnc(CNC(=O)c2c(=O)c3ccc(N4CCCN(C)CC4)nc3n3c2sc2ccccc23)cn1
IC50 (second compound 0.0316 µM): 360 nM
IC50 (second compound 0.1 µM): 406 nM
IC50 (second compound 0.316 µM): 189 nM
IC50 (second compound 1 µM): 82.3 nM
IC50 (second compound 3.16 µM): < 31.6 nM
IC50 (second compound 10 µM): < 31.6 nM
viability, T/C [1]: 98.6%
viability, T/C [2]: 78.5%
viability, T/C [3]: 57.9%
viability, T/C [4]: 2.29%
viability, T/C [5]: 0.07%
viability, T/C [6]: 0.11%
viability, T/C [7]: 99.3%
viability, T/C [8]: 88%
viability, T/C [9]: 63.5%
viability, T/C [10]: 1.62%
viability, T/C [11]: 0.05%
viability, T/C [12]: 0.11%
viability, T/C [13]: 84.3%
viability, T/C [14]: 64.7%
viability, T/C [15]: 39.2%
viability, T/C [16]: 1.28%
viability, T/C [17]: 0.04%
viability, T/C [18]: 0.08%
viability, T/C [19]: 55.3%
viability, T/C [20]: 46.6%
viability, T/C [21]: 27.1%
viability, T/C [22]: 0.1%
viability, T/C [23]: 0.05%
viability, T/C [24]: 0.09%
viability, T/C [25]: 41%
viability, T/C [26]: 53.3%
viability, T/C [27]: 22.9%
viability, T/C [28]: 0.12%
viability, T/C [29]: 0.1%
viability, T/C [30]: 0.15%
viability, T/C [31]: 36.9%
viability, T/C [32]: 9.96%
viability, T/C [33]: 0.28%
viability, T/C [34]: 0.24%
viability, T/C [35]: 0.17%
viability, T/C [36]: 0.2%

Now from value to compound, other results behind:

IC50 (second compound 0.0316 µM): 1680 nM
IC50 (second compound 0.1 µM): 910 nM
IC50 (second compound 0.316 µM): 1330 nM
IC50 (second compound 1 µM): 361 nM
IC50 (second compound 3.16 µM): < 31.6 nM
IC50 (second compound 10 µM): < 31.6 nM
SMILES: CC(C)(O)C1CCC(Nc2ccc3ncc(-c4cccc(C(F)(F)F)c4)n3n2)CC1 (stereo not given) + Cc1cnc(CNC(=O)c2c(=O)c3ccc(N4CCCN(C)CC4)nc3n3c2sc2ccccc23)cn1
viability, T/C [1]: 96.9%
viability, T/C [2]: 83.3%
viability, T/C [3]: 93.2%
viability, T/C [4]: 78.4%
viability, T/C [5]: 12%
viability, T/C [6]: 18.7%
viability, T/C [7]: 113%
viability, T/C [8]: 79.1%
viability, T/C [9]: 68.8%
viability, T/C [10]: 62.5%
viability, T/C [11]: 16%
viability, T/C [12]: 20.9%
viability, T/C [13]: 77.9%
viability, T/C [14]: 82.2%
viability, T/C [15]: 77.9%
viability, T/C [16]: 57.9%
viability, T/C [17]: 22.4%
viability, T/C [18]: 29.7%
viability, T/C [19]: 62.1%
viability, T/C [20]: 45.2%
viability, T/C [21]: 46.5%
viability, T/C [22]: 40.5%
viability, T/C [23]: 7.32%
viability, T/C [24]: 18.9%
viability, T/C [25]: 45%
viability, T/C [26]: 45%
viability, T/C [27]: 42%
viability, T/C [28]: 34.3%
viability, T/C [29]: 0.13%
viability, T/C [30]: 0.15%
viability, T/C [31]: 34.2%
viability, T/C [32]: 21.1%
viability, T/C [33]: 12.3%
viability, T/C [34]: 0.24%
viability, T/C [35]: 0.89%
viability, T/C [36]: 0.2%

IC50 (second compound 0.0316 µM): > 10000 nM
IC50 (second compound 0.1 µM): > 10000 nM
IC50 (second compound 0.316 µM): > 10000 nM
IC50 (second compound 1 µM): > 10000 nM
IC50 (second compound 3.16 µM): 865 nM
IC50 (second compound 10 µM): < 31.6 nM
SMILES: COc1ncnc(C2CC2)c1-c1ncc2cnn(Cc3ccc(-c4nc(C(F)(F)F)cn4C(C)C)cc3)c2n1 + Cc1cnc(CNC(=O)c2c(=O)c3ccc(N4CCCN(C)CC4)nc3n3c2sc2ccccc23)cn1
viability, T/C [1]: 108%
viability, T/C [2]: 107%
viability, T/C [3]: 119%
viability, T/C [4]: 92.6%
viability, T/C [5]: 123%
viability, T/C [6]: 95.3%
viability, T/C [7]: 121%
viability, T/C [8]: 96.2%
viability, T/C [9]: 94.4%
viability, T/C [10]: 100%
viability, T/C [11]: 125%
viability, T/C [12]: 93.5%
viability, T/C [13]: 105%
viability, T/C [14]: 78.3%
viability, T/C [15]: 71.1%
viability, T/C [16]: 76.2%
viability, T/C [17]: 76.5%
viability, T/C [18]: 82.3%
viability, T/C [19]: 60.6%
viability, T/C [20]: 54.8%
viability, T/C [21]: 55.8%
viability, T/C [22]: 52.8%
viability, T/C [23]: 57.9%
viability, T/C [24]: 55.9%
viability, T/C [25]: 53.3%
viability, T/C [26]: 49.2%
viability, T/C [27]: 49.2%
viability, T/C [28]: 49.7%
viability, T/C [29]: 52.8%
viability, T/C [30]: 47.1%
viability, T/C [31]: 41.1%
viability, T/C [32]: 45.2%
viability, T/C [33]: 46.5%
viability, T/C [34]: 46.6%
viability, T/C [35]: 50.3%
viability, T/C [36]: 35.6%
